We go through ten molecules from patent US20200115357A1, “LIVER X RECEPTORS (LXR) MODULATORS” (Phenex-FXR GmbH, priority 2017, published 2020).

Molecules are shown by their SMILES.

The target of assay [1] is T1, LXRα full length (FL) (Homo sapiens, UniProt Q13133).
T1 construct: the full length (FL) proteins of LXRα (amino acids 1-447); NP005684; expressed in transfected cells; host or cells: HEK293
T1 sequence (Q13133 1-447): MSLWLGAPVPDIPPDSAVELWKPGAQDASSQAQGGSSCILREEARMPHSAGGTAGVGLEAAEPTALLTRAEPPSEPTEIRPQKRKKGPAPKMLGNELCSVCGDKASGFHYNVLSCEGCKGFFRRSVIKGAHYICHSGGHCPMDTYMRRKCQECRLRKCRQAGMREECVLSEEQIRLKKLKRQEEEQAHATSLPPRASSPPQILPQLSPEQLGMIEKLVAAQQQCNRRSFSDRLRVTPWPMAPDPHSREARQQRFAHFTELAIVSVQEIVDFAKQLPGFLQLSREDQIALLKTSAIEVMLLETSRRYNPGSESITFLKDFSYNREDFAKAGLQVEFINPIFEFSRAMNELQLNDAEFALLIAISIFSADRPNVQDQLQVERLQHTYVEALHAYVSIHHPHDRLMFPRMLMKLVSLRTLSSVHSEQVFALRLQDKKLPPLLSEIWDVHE
Briefly: LXR Gal4 reporter transient transfection assay (M2H), Gal4α FL. The format is cell-based. As to conditions: HEK293 cells; for EC50: read-out: M2H Gal4α FL activity range (EC50). The method, then:
(§1) The tested compounds were usually dissolved, tested and stored as 20 mM stock solutions in DMSO. Since sulfonyl acetic acid derivatives tend to decarboxylate under these conditions, these stock solutions were prepared, tested and stored as 20 mM DMSO stock solutions containing 100 mM trifluoroacetic acid (5 equivalents). Sulfonyl acetic acid derivatives are shelf stable as solid at rt for long time as reported by Griesbrecht et al. (Synlett 2010:374) or Faucher et al. (J. Med. Chem. 2004; 47:18).
(§2) LXR Gal4 Reporter Transient Transfection Assays
(§3) LXRα and LXRβ activity status was determined via detection of interaction with coactivator and corepressor proteins in mammalian two-hybrid experiments (M2H). For this, via transient transfection the full length (FL) proteins of LXRα (amino acids 1-447; NP005684; SEQ ID NO:7) or LXRβ-(amino acids 1-461; NP009052; SEQ ID NO:8) or the ligand-binding domains (LBD) of LXRα (amino acids 155-447 SEQ ID NO:3) or LXRβ (amino acids 156-461; SEQ ID NO:4) were expressed from pCMV-AD (Stratagene) as fusions to the transcriptional activation domain of NFkB. As cofactors, domains of either the steroid receptor coactivator 1 (SRC1; amino acids 552-887; SEQ ID NO:5) or of the corepressor NCoR (amino acids 1903-2312 SEQ ID NO:6) were expressed as fusions to the DNA binding domain of the yeast transcription factor GAL4 (from pCMV-BD; Stratagene). Interaction was monitored via activation of a coexpressed Firefly Luciferase Reporter gene under control of a promoter containing repetitive GAL4 response elements (vector pFRLuc; Stratagene). Transfection efficiency was controlled via cotransfection of constitutively active pRL-CMV Renilla reniformis luciferase reporter (Promega). HEK293 cells were grown in minimum essential medium (MEM) with 2 mM L-glutamine and Earle's balanced salt solution supplemented with 8.3% fetal bovine serum, 0.1 mM non-essential amino acids, 1 mM sodium pyruvate, at 37° C. in 5% CO2. 3.5×10^4 cells/well were plated in 96-well cell culture plates in growth medium supplemented with 8.3% fetal bovine serum for 16-20 h to ˜90% confluency. For transfection, medium was taken off and LXR and cofactor expressing plasmids as well as the reporter plasmids are added in 30 μL OPTIMEM/well including polyethylene-imine (PEI) as vehicle. Typical amounts of plasmids transfected/well: pCMV-AD-LXR (5 ng), pCMV-BD-cofactor (5 ng), pFR-Luc (100 ng), pRL-CMV (0.5 ng). Compound stocks were prepared in DMSO, prediluted in MEM to a total volume of 120 μL, and added 4 h after addition of the transfection mixture (final vehicle concentration not exceeding 0.2%). Cells were incubated for additional 16 h, lysed for 10 min in 1× Passive Lysis Buffer (Promega) and Firefly and Renilla luciferase activities were measured sequentially in the same cell extract using buffers containing D-luciferine and coelenterazine, respectively. Measurements of luminescence were done in a BMG-Iuminometer.

Assay [2] addresses T2, GST-LXRβ ligand-binding domain (Homo sapiens, UniProt P55055, DUP175-175).
T2 construct: amino acids 156-461; NP009052; made in house; host or cells: E. coli
T2 sequence (P55055 with tags, fused parts or gaps DUP175-175): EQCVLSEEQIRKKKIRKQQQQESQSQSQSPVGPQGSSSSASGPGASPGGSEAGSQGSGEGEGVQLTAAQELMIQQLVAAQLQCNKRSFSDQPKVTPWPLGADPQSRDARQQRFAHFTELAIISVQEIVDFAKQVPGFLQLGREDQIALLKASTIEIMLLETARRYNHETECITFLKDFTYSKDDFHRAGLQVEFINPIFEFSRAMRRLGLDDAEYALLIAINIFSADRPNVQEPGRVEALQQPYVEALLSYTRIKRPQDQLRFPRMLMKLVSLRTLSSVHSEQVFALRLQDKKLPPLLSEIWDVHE
The assay is described as follows: TR-FRETβ activity assay (LXRβ-LBD / NCoA3 coactivator peptide, prestimulated with 24(S)-25-epoxycholesterol). Type of assay: biochemical. Details: key to behavior in FRET assay: ag=agonist; ia=inverse agonist. The conditions noted are these: for EC50: 1 μM 24(S)-25-epoxycholesterol as prestimulating agonist, read-out: FRETβ activity range (EC50); for behavior in FRET assay: agonist or inverse agonist. The method, then: The tested compounds were usually dissolved, tested and stored as 20 mM stock solutions in DMSO. […] Sulfonyl acetic acid derivatives are shelf stable as solid at rt for long time as reported by Griesbrecht et al. (Synlett 2010:374) or Faucher et al. (J. Med. Chem. 2004; 47:18). TR-FRETβ Activity Assay Recombinant GST-LXRβ ligand-binding domain (LBD; amino acids 156-461; NP009052; SEQ ID NO:2) was expressed in E. coli and purified via gluthatione-sepharose affinity chromatography. N-terminally biotinylated NCoA3 coactivator peptide (SEQ ID NO:1) was chemically synthesized (Eurogentec). […] Finally, a detection mix was added containing anti GST-Tb cryptate (CisBio; 610SAXLB) and Streptavidin-XL665 (CisBio; 610SAXLB) as fluorescent donor and acceptor, respectively, as well as the coactivator peptide and LXRβ-LBD protein (SEQ ID NO:2). The reaction was mixed thoroughly, equilibrated for 1 h at 4° C. and vicinity of LXRβ and coactivator peptide was detected by measurement of fluorescence in a VictorX4 multiplate reader (PerkinElmer Life Science) using 340 nm as excitation and 615 and 665 nm as emission wavelengths. Assays were performed in triplicates. Final Assay Concentrations of Components: 240 mM KCl, 1 μg/μL BSA, 0.002% Triton-X-100, […] anti GST-Tb cryptate, 2.5 ng/μL Streptavidin-XL665, coactivator peptide (400 nM), LXRβ protein ([…], i.e. 76 nM)

Assay [3] deals with T3, LXRβ full length (FL) (Homo sapiens, UniProt P55055, DUP175-175).
T3 construct: the full length (FL) proteins of LXRα (amino acids 1-447); NP005684; NP009052; expressed in transfected cells; host or cells: HEK293
T3 sequence (P55055 with tags, fused parts or gaps DUP175-175): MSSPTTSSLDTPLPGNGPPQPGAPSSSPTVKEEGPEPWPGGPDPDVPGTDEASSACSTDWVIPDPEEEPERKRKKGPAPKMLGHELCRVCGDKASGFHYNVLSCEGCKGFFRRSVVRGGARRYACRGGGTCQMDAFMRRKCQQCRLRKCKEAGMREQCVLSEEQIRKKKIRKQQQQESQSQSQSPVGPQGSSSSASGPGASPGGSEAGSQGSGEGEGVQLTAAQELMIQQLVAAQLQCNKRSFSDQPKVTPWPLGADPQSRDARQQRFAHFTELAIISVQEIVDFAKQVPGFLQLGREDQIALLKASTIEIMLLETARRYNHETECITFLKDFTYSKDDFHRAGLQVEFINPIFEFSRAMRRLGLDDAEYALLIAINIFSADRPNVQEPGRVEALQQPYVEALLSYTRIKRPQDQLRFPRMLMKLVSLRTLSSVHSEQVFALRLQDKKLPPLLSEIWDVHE
The assay is described as follows: LXR Gal4 reporter transient transfection assay (M2H), Gal4β FL. Type of assay: cell-based. The conditions noted are these: HEK293 cells; read-out: M2H Gal4β FL activity range (EC50). The method, then: as §1, §2, §3

By EC50 is commonly meant the concentration giving half of the maximal effect. For `Cc1cc(C)c(S(=O)(=O)N(Cc2ccc(-c3cccc(S(=O)(=O)C(C)C(=O)O)c3)cc2)Cc2ccc(C(F)(F)F)o2)c(C)c1` (stereo not drawn) [Example 5/1], the EC50 in assay [1] was in the range of 100 to 1000 nM; in assay [2], 1000 to 10000 nM; in assay [3], 100 to 1000 nM. Also, in assay [2], the “behavior in FRET assay” value is recorded as “ia”.

`Cc1ccc2ccccc2c1S(=O)(=O)N(Cc1ccc(-c2cccc(S(=O)(=O)CC(=O)O)c2)cc1)Cc1ccc(C#N)o1` [Example 5/7]: the EC50 in assay [1] lay in the range of 100 to 1000 nM; in assay [2] it was 1000 to 10000 nM; in assay [3], 100 to 1000 nM. In assay [2], the “behavior in FRET assay” value was “ia”.

For the molecule `Cc1cc(C)c(S(=O)(=O)N(Cc2ccc(-c3cc(F)c(CO)c(S(=O)(=O)CC(=O)O)c3)cc2)Cc2ccc(C(F)(F)F)o2)c(C)c1` [Example 9, 2-((5-Fluoro-4-(hydroxymethyl)-4′-(((2,4,6-trimethyl-N-((5-(trifluoromethyl)furan-2-yl)methyl)phenyl)sulfonamido)methyl)-[1,1′-biphenyl]-3-yl)sulfonyl)acetic acid], the EC50 fell in the range of 100 to 1000 nM in assay [1], 1000 to 10000 nM in assay [2] and 100 to 1000 nM in assay [3]. In assay [2], the “behavior in FRET assay” value was “ia”.

On to `Cc1ccc2ccccc2c1S(=O)(=O)N(Cc1ccc(-c2cccc(S(=O)(=O)CC(=O)O)c2)cc1)Cc1ccc(C(F)(F)F)o1` [Example 10, 2-((4′-(((2-Methyl-N-((5-(trifluoromethyl)furan-2-yl)methyl)naphthalene)-1-sulfonamido)methyl)[1,1′-biphenyl]-3-yl)sulfonyl)acetic acid], for which the EC50 in assay [1], in assay [2] and in assay [3] was 100 to 1000 nM each time. The “behavior in FRET assay” value in assay [2] is recorded as “ia”.

On to `O=C(O)CS(=O)(=O)c1cccc(-c2ccc(CN(Cc3ccc(C(F)(F)F)o3)S(=O)(=O)c3c(Cl)cccc3Cl)cc2)c1` [Example 10/1], for which, in assay [1], the “M2H Gal4α FL activity range (EC50)” value was “inactive”. Moreover, in assay [2], the EC50 is 1000 to 10000 nM and the “behavior in FRET assay” value is on record as “ag”. For the same molecule, the EC50 in assay [3] was in the range of 100 to 1000 nM.

With `Cc1cc(C)c(S(=O)(=O)N(Cc2ccc(-c3cccc(S(=O)(=O)CC(=O)O)c3)cc2)Cc2cccc(C(F)(F)F)c2)c(C)c1` [Example 11, 2-((4′-(((2,4,6-Trimethyl-N-(3-(trifluoromethyl)benzyl)phenyl)sulfonamido)methyl)-[1,1′-biphenyl]-3-yl)sulfonyl)acetic acid], the EC50 in assay [1], in assay [2] and in assay [3] was 1000 to 10000 nM in each case. Further, in assay [2], the “behavior in FRET assay” value is reported as “ia”.

On to `Cc1cc(F)c(S(=O)(=O)N(Cc2ccc(-c3cccc(S(=O)(=O)CC(=O)O)c3)cc2)Cc2ccc(C(F)(F)F)o2)c(F)c1` [Example 14/1], for which the “M2H Gal4α FL activity range (EC50)” value in assay [1] was “inactive”. In addition, in assay [2], the EC50 fell in the range of 1000 to 10000 nM and the “behavior in FRET assay” value is listed as “ag”. Also, in assay [3], the EC50 was 1000 to 10000 nM.

On to `Cc1cc(C)c(S(=O)(=O)N(Cc2ccc(-c3cccc(S(=O)(=O)CC(=O)O)c3)cc2)C(C)(C)c2ccc(C(F)(F)F)o2)c(C)c1` [Example 17, 2-((4′-(((2,4,6-Trimethyl-N-(2-(5-(trifluoromethyl)furan-2-yl)propan-2-yl)phenyl)sulfon-amido)methyl)-[1,1′-biphenyl]-3-yl)sulfonyl)acetic acid], for which the EC50 in assay [1], in assay [2] and in assay [3] was 1000 to 10000 nM in each case.

With `Cc1cc(C)c(S(=O)(=O)N(CCc2ccc(C(F)(F)F)o2)Cc2ccc(-c3cccc(S(=O)(=O)CC(=O)O)c3)cc2)c(C)c1` [Example 17/1], the EC50 in assay [1], in assay [2] and in assay [3] was 1000 to 10000 nM each time. Further, the “behavior in FRET assay” value in assay [2] is “ia”.

Consider `CC(C)(C(=O)O)c1cccc(-c2ccc(CN(Cc3ccc(C(F)(F)F)o3)S(=N)(=O)c3cccc4ccccc34)cc2)c1` (stereo not drawn) [Example 26, 2-Methyl-2-(4′-((N-((5-(trifluoromethyl)furan-2-yl)methyl)naphthalene-1-sulfonoamid-imidamido)methyl)-[1,1′-biphenyl]-3-yl)propanoic acid], for which the EC50 was < 100 nM in assay [1], 100 to 1000 nM in assay [2] and < 100 nM in assay [3]. Moreover, the “behavior in FRET assay” value in assay [2] is reported as “ia”.
